Columns and labels:
[1] = target: T1, wt human TYK2, catalytic site (Homo sapiens, UniProt P29597); assay: HTRF KinEASE assay, TYK2; type: biochemical; settings: 1 μM ATP; read-out: IC50, Activity Toward TYK2
T1 construct: wt human TYK2, catalytic site; purchased SignalChem
T1 sequence (P29597 897-1176 limits assumed): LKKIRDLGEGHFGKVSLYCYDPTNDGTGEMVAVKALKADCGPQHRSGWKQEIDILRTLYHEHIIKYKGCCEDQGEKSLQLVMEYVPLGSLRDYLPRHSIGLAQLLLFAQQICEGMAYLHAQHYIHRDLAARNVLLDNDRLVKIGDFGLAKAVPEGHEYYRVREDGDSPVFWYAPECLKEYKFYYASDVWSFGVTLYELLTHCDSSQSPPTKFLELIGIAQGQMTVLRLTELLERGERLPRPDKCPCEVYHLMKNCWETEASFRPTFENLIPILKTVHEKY
Method: (§1) Basic protocol for HTRF KinEASE assay (Cisbio/FRA) inhibitor studies involved two steps: • Enzymatic step: Addition of 4 μL of test compound in corresponding DMSO dilutions, 4 μL of kinase/substrate mixture, 2 μL of ATP into 384 well small volume plates. Incubation for at least 30 minutes at room temperature. • Detection step: Addition of 5 μL antibody and 5 μL streptavidin-XL665, read plate after 60 minutes. Data analysis of emission ratios according KinEASE assay protocol.
(§2) Kinase and assay components were adjusted to final concentrations according to kit protocol. For TYK2: 2 nM wt human TYK2, catalytic site (SignalChem/CAN), 1 μM HTRF KinEASE-TK Substrate-biotin, 1 μM ATP in 1× Kinase Buffer. For JAK1: 4 nM wt human JAK1, catalytic site (ThermoFisher/USA), 1 μM HTRF KinEASE-TK Substrate-biotin, 2.5 μM ATP in 1× Kinase Buffer. For JAK2: 1 nM wt human JAK2, catalytic site (SignalChem/CAN), 1 μM HTRF KinEASE-TK Substrate-biotin, 100 μM ATP in 1× Kinase Buffer.
as §2

[2] = target: T2, wt human JAK1, catalytic site (Homo sapiens, UniProt P23458); assay: HTRF KinEASE assay, JAK1; type: biochemical; settings: 2.5 μM ATP; read-out: IC50, Activity Toward JAK1
T2 construct: wt human JAK1, catalytic site; purchased ThermoFisher
T2 sequence (P23458 875-1153 limits assumed): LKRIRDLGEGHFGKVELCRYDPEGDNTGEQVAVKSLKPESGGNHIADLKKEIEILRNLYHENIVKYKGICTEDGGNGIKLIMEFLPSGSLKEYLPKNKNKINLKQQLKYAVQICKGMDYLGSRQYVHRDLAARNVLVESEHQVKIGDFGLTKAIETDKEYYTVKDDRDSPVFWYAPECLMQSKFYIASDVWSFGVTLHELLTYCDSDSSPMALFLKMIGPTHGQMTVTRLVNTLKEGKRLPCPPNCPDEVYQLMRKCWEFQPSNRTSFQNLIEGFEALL
Method: as §1
as §2, with “For JAK1: 4 nM wt human JAK1, catalytic site (ThermoFisher/USA), 1 μM HTRF KinEASE-TK Substrate-biotin, 2.5 μM ATP in 1× Kinase Buffer.” left out
as §2, with “For JAK1: 4 nM wt human JAK1, catalytic site (ThermoFisher/USA), 1 μM HTRF KinEASE-TK Substrate-biotin, 2.5 μM ATP in 1× Kinase Buffer.” left out

Row | SMILES | IC50 [1] [nM] | IC50 [2] [nM]
1 | NC(=O)c1nn(-c2c(Cl)cccc2Cl)cc1Nc1ccc(C(=O)N2CCN(CC(F)(F)F)CC2)cc1 [compound 93, 1-(2,6-dichlorophenyl)-4-((4-(4-(2,2,2-trifluoroethyl)piperazine-1-carbonyl)phenyl)amino)-1H-pyrazole-3-carboxamide] | 10 to 100 | 100 to 1000
2 | NC(=O)c1nn(-c2c(Cl)cccc2Cl)nc1Nc1ccc(-n2ncc3c2CCOC3)cc1 [compound 110, 2-(2,6-Dichloro-phenyl)-5-[4-(6,7-dihydro-4H-pyrano[4,3-c]pyrazol-1-yl)-phenylamino]-2H-[1,2,3]triazole-4-carboxylic acid amide] | 10 to 100 | 10 to 100
3 | NC(=O)c1nn(-c2c(Cl)cccc2Cl)nc1Nc1ccc(-n2cc3c(n2)CCOC3)cc1 [compound 111, 2-(2,6-Dichloro-phenyl)-5-[4-(6,7-dihydro-4H-pyrano[4,3-c]pyrazol-2-yl)-phenylamino]-2H-[1,2,3]triazole-4-carboxylic acid amide] | 100 to 1000 | 100 to 1000
4 | Cn1cc(C(F)(F)F)nc1-c1ccc(Nc2nn(-c3c(Cl)cccc3Cl)nc2C(N)=O)cc1 [compound 115, 2-(2,6-dichlorophenyl)-5-((4-(1-methyl-4-(trifluoromethyl)-1H-imidazol-2-yl)phenyl)amino)-2H-1,2,3-triazole-4-carboxamide] | 10 to 100 | 100 to 1000
5 | COCCn1cc(C(F)(F)F)nc1-c1ccc(Nc2nn(-c3c(Cl)cccc3Cl)nc2C(N)=O)cc1 [compound 118, 2-(2,6-dichlorophenyl)-5-((4-(1-(2-methoxyethyl)-4-(trifluoromethyl)-1H-imidazol-2-yl)phenyl)amino)-2H-1,2,3-triazole-4-carboxamide] | 100 to 1000 | 10 to 100
6 | COCCNC(=O)c1ccc(Nc2nn(-c3c(Cl)cccc3Cl)nc2C(N)=O)cc1 [compound 123, 2-(2,6-dichlorophenyl)-5-((4-((2-methoxyethyl)carbamoyl)phenyl)amino)-2H-1,2,3-triazole-4-carboxamide] | 10 to 100 | < 10
7 | CCc1cnnn1-c1ccc(Nc2nn(-c3c(Cl)cccc3Cl)nc2C(N)=O)cc1 [compound 126, 2-(2,6-dichlorophenyl)-5-((4-(5-ethyl-1H-1,2,3-triazol-1-yl)phenyl)amino)-2H-1,2,3-triazole-4-carboxamide] | 10 to 100 | < 10

The remaining lines, values ahead:

Row | IC50 [1] [nM] | IC50 [2] [nM] | SMILES
8 | < 10 | 100 to 1000 | NC(=O)c1nn(-c2c(Cl)cccc2Cl)cc1Nc1ccc(C(=O)N2CCCCCC2)cc1 [compound 95, 4-((4-(azepane-1-carbonyl)phenyl)amino)-1-(2,6-dichlorophenyl)-1H-pyrazole-3-carboxamide]
9 | < 10 | < 10 | NC(=O)c1nn(-c2c(Cl)cccc2Cl)nc1Nc1ccc(-c2nc(C(F)(F)F)cn2CCO)cc1 [compound 112, 2-(2,6-dichlorophenyl)-5-((4-(1-(2-hydroxyethyl)-4-(trifluoromethyl)-1H-imidazol-2-yl)phenyl)amino)-2H-1,2,3-triazole-4-carboxamide]
10 | 10 to 100 | 10 to 100 | CC(C)n1cnnc1-c1ccc(Nc2nn(-c3c(Cl)cccc3Cl)nc2C(N)=O)cc1 [compound 125, 2-(2,6-dichlorophenyl)-5-((4-(4-isopropyl-4H-1,2,4-triazol-3-yl)phenyl)amino)-2H-1,2,3-triazole-4-carboxamide]
11 | 100 to 1000 | 100 to 1000 | CN1CCN(C(=O)c2ccc(Nc3nn(-c4c(Cl)cccc4Cl)nc3C(N)=O)nc2)CC1 [compound 127, 2-(2,6-dichlorophenyl)-5-((5-(4-methylpiperazine-1-carbonyl)pyridin-2-yl)amino)-2H-1,2,3-triazole-4-carboxamide]
12 | < 10 | < 10 | NC(=O)c1nn(-c2c(Cl)cccc2Cl)nc1Nc1ccc(C(=O)NCCF)cc1 [compound 128, 2-(2,6-dichlorophenyl)-5-((4-((2-fluoroethyl)carbamoyl)phenyl)amino)-2H-1,2,3-triazole-4-carboxamide]
